The text below walks through data of ChEMBL document CHEMBL4330075, “Discovery of Novel Quinoline-Chalcone Derivatives as Potent Antitumor Agents with Microtubule Polymerization Inhibitory Activity” (J Med Chem, 2019).

The test system of one data set is MDA-MB-231. Put plainly: Antiproliferative activity against human MDA-MB-231 cells after 72 hrs by MTT assay. The class given is functional, cell-based. Particulars: MDA-MB-231, 72 h. (Tetrazolium assays rely on reduction of a dye to a coloured formazan, in cell work by metabolically active cells.)
A further data set has as its system KB. Briefly: Antiproliferative activity against human KB cells after 72 hrs by MTT assay. The class given is functional, cell-based.
Another data set has as its system HepG2. Briefly: cells. Particulars: Homo sapiens, HepG2, 72 h.
A further data set has as its system K562. Briefly: Antiproliferative activity against human K562 cells after 72 hrs by MTT assay. The class given is functional, cell-based. Particulars: K562, 72 h.
A further data set has as its system HCT-8. Put plainly: Antiproliferative activity against human HCT8 cells after 72 hrs by MTT assay. The class given is functional, cell-based. Particulars: HCT-8, 72 h.
The nature of data set [1]: Selectivity index, ratio of IC50 for human LO2 cells to IC50 for human HepG2 cells. The class given is toxicity. Particulars: LO2 cells and HepG2 cells, read-out: Ratio IC50.
The subject of another data set is L02. Briefly: Cytotoxicity against human LO2 cells after 72 hrs by MTT assay. The class given is cell-based. Particulars: L02, 72 h.
The nature of data set [2]: Aqueous solubility in pH 7.4 phosphate buffer by HPLC analysis. The class given is physicochemical.
Data set [3] can be described thus: Antitumor activity against […] H22 cells xenografted in ICR mouse assessed as reduction in tumor weight at 20 mg/kg, iv qd for 21 consecutive days and measured every 2 days relative to control. The class given is functional. The arrangement: scale not given: the % may be the effect or the level left. In general terms: Xenograft models place foreign cells or tissue in a host animal.

Data set [4] can be described thus: Toxicity in ICR mouse xenografted with […] cells assessed as decrease in body weight at 10 to 20 mg/kg, iv qd administered for 21 days and measured every 2 days. The class given is organism-based. Particulars: in vivo.

Structures are written as SMILES.

By IC50 is commonly meant the concentration needed to halve the response being measured. With `COc1ccc(/C=C(\C)C(=O)c2cc(N(C)C)nc3ccccc23)cc1O`, the IC50 with MDA-MB-231 amounted to 48 nM; with KB it was 43 nM; in the data set on HepG2 it was 57 nM; with K562, 49 nM; with HCT-8 it was 52 nM.
`COc1ccc(/C=C(\C)C(=O)c2cc(C)nc3ccccc23)cc1OC`: in the data set on K562, the concentration for half-maximal inhibition (IC50) stood at 1060 nM.
In turn, `COc1ccc(CNc2cc(C(=O)/C(C)=C/c3ccc(OC)c(O)c3)c3ccccc3n2)cc1` gave an IC50 with K562 of 330 nM.
The same measure, in the same setting: as for `COc1ccc(/C=C\c2cc(OC)c(OC)c(OC)c2)cc1O` [COMBRETASTATIN A4], the figure is 11 nM.
On to `COc1cc(C(=O)/C(C)=C/c2ccc(OC)c(O)c2)c2ccccc2n1`, for which the selectivity ratio in [1] came out at 24.1. For the same molecule, the IC50 with L02 was found to be 914 nM; with MDA-MB-231, 52 nM; with KB it was 52 nM; in the data set on HepG2, 38 nM; in the data set with K562 it was 26 nM; in the data set with HCT-8, 61 nM.
As to `C/C(=C\c1cccc2[nH]ccc12)C(=O)c1cc(C)nc2ccccc12`, the IC50 with K562 is > 1000 nM.
In the data set with K562, `CCNc1cc(C(=O)/C(C)=C/c2ccc(OC)c(O)c2)c2ccccc2n1` displayed a half-maximal inhibitory concentration (IC50) of 40 nM.
`COc1ccc(/C=C(\C)C(=O)c2cc(N3CCOCC3)nc3ccccc23)cc1O` yielded an IC50 with K562 of 153 nM.
Regarding `COc1ccc2c(/C=C/C(=O)c3cc(C)nc4ccccc34)c[nH]c2c1`, in the data set with K562, the IC50 is > 1000 nM.
Take `CCOC(=O)c1cc(C(=O)/C(C)=C/c2ccc(OC)c(O)c2)c2ccccc2n1`: the IC50 with K562 came to 120 nM.
Take `COc1ccc(/C=C(\C)C(=O)c2cc(C=O)nc3ccccc23)cc1O`: in the data set on K562, the IC50 turned out to be 110 nM.
Usually solubility stands for how much of the substance goes into solution per volume. With `COc1ccc(/C=C(\C)C(=O)c2cc(C)nc3ccccc23)cc1O.Cl`, the solubility in data set [2] is > 1000 µg/mL. Besides, the Activity in [3] is on record as 68.9%; in data set [4], “Non-Toxic”.
Take `COc1ccc2c(/C=C(\C)C(=O)c3cc(C)nc4ccccc34)c[nH]c2c1`: the IC50 in the data set with K562 was > 1000 nM.
Same read-out and setting: as for `COc1ccc(/C=C(\C)C(=O)c2cc(N3CCCC3)nc3ccccc23)cc1O`, the figure is 315 nM.
Turning to `COc1ccc(/C=C(\C)C(=O)c2cc(Cl)nc3ccccc23)cc1O`, the half-maximal inhibitory concentration (IC50) in the data set on MDA-MB-231 worked out at 183 nM; with KB, 237 nM; in the data set with HepG2, 187 nM; in the data set with K562, 53 nM; in the data set on HCT-8, 227 nM.
Turning to `Cc1cc(C(=O)/C=C/c2cccc3[nH]ccc23)c2ccccc2n1`, in the data set on K562, the IC50 is > 1000 nM.
